Measurements taken from US20020119198A1, “Self-emulsifying drug delivery systems for extremely water-insoluble, lipophilic drugs” (priority 2000, published 2002).

Legend:
[1] = Solubility of the active agent in a typical aqueous formulation; assay type: physicochemical; details: room temperature
[2] = Solubility of the active agent in the formulation vehicle; assay type: physicochemical

Cc1cc(C)c(C=C2C(=O)Nc3ccccc32)[nH]1 [3-[(2,4-dimethylpyrrol-5-yl)methylene]-2-indolinone]
solubility in a typical aqueous formulation [1]: approximately 10 nanograms per milliliter
solubility, drug dissolved in vehicle ([2]; vehicle free of polyvinylpyrrolidone): about 15 mg/g
solubility, drug dissolved in vehicle ([2]; vehicle of the present invention (with polyvinylpyrrolidone)): over 30 mg/g
